# Data reported in ChEMBL document CHEMBL3868641, “Discovery, characterization and biological evaluation of a novel (R)-4,4-difluoropiperidine scaffold as dopamine receptor 4 (D4R) antagonists” (Bioorg Med Chem Lett, 2016).
# Legend:
# [1] = Displacement of [3H]Spiperone from recombinant human Dopamine D4.4 receptor expressed in CHO-K1 cell membranes after 120 mins
# CHO-K1 [2] = assay: Displacement of [3H] Spiperone from recombinant human Dopamine D4.4 receptor expressed in CHO-K1 cell membranes at 0.1 uM after 120 mins relative to control
# [3] = Unbound fraction in rat plasma by HPLC/MS based equilibrium dialysis method; assay type: ADME, cell-free
# [4] = Displacement of [3H]Spiperone from recombinant human Dopamine D4.4 receptor expressed in CHO-K1 cell membranes at 10 uM after 120 mins relative to control
# [5] = Plasma concentration in rat at 0.25 mg/kg, iv administered through cassette dosing after 0.25 hrs by LC/MS/MS analysis; assay type: ADME, organism-based
# [6] = Unbound fraction in human plasma by HPLC/MS based equilibrium dialysis method; assay type: ADME, cell-free
# [7] = Intrinsic clearance in human liver microsomes by HPLC/MS analysis; assay type: ADME; details: read-out: CLH
# [8] = Drug uptake in rat brain at 0.25 mg/kg, iv administered through cassette dosing after 0.25 hrs by LC/MS/MS analysis; assay type: ADME, organism-based; details: for concentration at 0.25 h: brain, read-out: Drug uptake
# [9] = Intrinsic clearance in rat liver microsomes by HPLC/MS analysis; assay type: ADME; details: read-out: CLH
# [10] = Displacement of [3H] Spiperone from recombinant human Dopamine D4.4 receptor expressed in CHO-K1 cell membranes at 1 uM after 120 mins relative to control
# [11] = Ratio of drug level in brain to plasma in rat at 0.25 mg/kg, iv administered through cassette dosing after 0.25 hrs by LC/MS/MS analysis; assay type: ADME, organism-based
# [12] = target: D(2) dopamine receptor (Homo sapiens) (UniProt P14416); assay: Displacement of [3H]Spiperone from recombinant human Dopamine D2L receptor expressed in CHO cell membranes at 10 uM after 120 mins relative to control
# Sequence of D(2) dopamine receptor (Homo sapiens) (P14416 whole entry): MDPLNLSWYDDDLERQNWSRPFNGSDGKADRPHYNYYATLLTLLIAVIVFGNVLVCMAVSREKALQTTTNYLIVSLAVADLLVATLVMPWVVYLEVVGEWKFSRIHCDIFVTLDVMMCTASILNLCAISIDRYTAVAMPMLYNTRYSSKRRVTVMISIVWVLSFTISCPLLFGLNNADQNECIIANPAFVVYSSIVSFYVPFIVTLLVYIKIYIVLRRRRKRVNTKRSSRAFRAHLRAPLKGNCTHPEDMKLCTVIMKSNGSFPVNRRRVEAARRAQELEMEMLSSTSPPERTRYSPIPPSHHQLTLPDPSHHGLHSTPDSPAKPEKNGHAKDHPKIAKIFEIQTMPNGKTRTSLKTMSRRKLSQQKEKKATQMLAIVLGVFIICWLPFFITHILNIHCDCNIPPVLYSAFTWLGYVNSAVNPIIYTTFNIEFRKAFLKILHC
# [13] = target: D(1B) dopamine receptor (Homo sapiens) (UniProt P21918); assay: Displacement of [3H]SCH-23390 from recombinant human Dopamine D5 receptor expressed in CHO cell membranes at 10 uM after 120 mins relative to control
# Sequence of D(1B) dopamine receptor (Homo sapiens) (P21918 whole entry): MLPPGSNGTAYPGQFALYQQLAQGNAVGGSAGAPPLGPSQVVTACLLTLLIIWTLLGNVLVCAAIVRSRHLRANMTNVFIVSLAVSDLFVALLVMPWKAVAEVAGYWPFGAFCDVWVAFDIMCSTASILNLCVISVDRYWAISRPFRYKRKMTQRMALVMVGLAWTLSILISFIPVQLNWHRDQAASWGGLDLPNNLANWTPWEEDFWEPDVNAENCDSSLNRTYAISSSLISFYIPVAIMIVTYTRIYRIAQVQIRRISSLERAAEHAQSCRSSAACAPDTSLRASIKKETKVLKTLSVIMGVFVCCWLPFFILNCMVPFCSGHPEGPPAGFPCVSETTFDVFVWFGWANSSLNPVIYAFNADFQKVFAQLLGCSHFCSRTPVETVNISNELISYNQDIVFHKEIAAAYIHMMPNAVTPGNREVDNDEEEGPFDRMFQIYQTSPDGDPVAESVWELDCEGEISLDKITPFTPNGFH
# [14] = target: D(3) dopamine receptor (Homo sapiens) (UniProt P35462); assay: Displacement of [3H]Spiperone from recombinant human Dopamine D3 receptor expressed in CHO cell membranes at 10 uM after 120 mins relative to control
# Sequence of D(3) dopamine receptor (Homo sapiens) (P35462 whole entry): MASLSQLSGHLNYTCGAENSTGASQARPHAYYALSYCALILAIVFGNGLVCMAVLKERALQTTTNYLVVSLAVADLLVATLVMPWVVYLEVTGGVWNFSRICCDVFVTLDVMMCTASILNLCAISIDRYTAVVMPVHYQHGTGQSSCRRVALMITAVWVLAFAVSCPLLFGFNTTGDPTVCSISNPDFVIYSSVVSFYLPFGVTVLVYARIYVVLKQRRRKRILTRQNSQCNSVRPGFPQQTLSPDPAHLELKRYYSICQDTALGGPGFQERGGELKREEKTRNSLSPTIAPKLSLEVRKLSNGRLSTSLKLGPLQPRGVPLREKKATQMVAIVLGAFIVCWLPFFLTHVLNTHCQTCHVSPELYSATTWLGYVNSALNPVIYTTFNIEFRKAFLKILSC
# [15] = target: D(2) dopamine receptor (Homo sapiens) (UniProt P14416); assay: Displacement of [3H]Spiperone from recombinant human Dopamine D2S receptor expressed in CHO cell membranes at 10 uM after 120 mins relative to control
# [16] = target: D(1A) dopamine receptor (Homo sapiens) (UniProt P21728); assay: Displacement of [3H]SCH-23390 from recombinant human Dopamine D1 receptor expressed in CHO cell membranes at 10 uM after 120 mins relative to control
# Sequence of D(1A) dopamine receptor (Homo sapiens) (P21728 whole entry): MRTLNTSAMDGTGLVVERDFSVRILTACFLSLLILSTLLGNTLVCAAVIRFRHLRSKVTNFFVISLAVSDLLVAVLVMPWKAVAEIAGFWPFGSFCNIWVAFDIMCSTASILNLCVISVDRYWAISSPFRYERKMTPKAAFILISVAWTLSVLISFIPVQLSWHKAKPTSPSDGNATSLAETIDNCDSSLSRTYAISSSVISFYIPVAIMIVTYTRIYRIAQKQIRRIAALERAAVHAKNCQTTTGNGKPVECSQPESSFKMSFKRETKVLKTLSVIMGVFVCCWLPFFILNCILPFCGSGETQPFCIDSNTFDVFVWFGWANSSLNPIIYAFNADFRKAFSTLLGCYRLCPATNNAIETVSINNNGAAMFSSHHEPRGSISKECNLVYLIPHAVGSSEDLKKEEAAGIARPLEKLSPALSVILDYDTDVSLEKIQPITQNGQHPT
# CHO-K1 [17] = assay: Displacement of [3H] Spiperone from recombinant human Dopamine D4.4 receptor expressed in CHO-K1 cell membranes at 10 nM after 120 mins relative to control
IC50 [1],fraction unbound [3],concentration at 0.25 h [5],fraction unbound [6],CLint scaled [7],"Drug uptake ([8]; in vivo, 0.25 h, BLD = below limit of detection)",CLint scaled [9],Kp at 0.25 h [11],concentration at 0.25 h [8],inhibition [12],inhibition [13],inhibition [14],inhibition [15],inhibition [16],SMILES,Ki [1],inhibition (CHO-K1 [2]),inhibition [4],inhibition [10],inhibition (CHO-K1 [17])
620 nM,,,,,,,,,,,,,,COc1ccc2c(CN3CCC(F)(F)[C@@H](CCc4ccc(F)cc4)C3)c[nH]c2c1,170 nM,64%,,,
,0.001,25.3 ng/mL,0.001,70.5 mL/min/kg,Bld,1910 mL/min/kg,,,,,,,,Fc1ccc2[nH]cc(CN3CCC(F)(F)[C@@H](CCc4ccccc4)C3)c2c1,,,55%,,
190 nM,0.002,54.8 ng/mL,0.005,156 mL/min/kg,,1300 mL/min/kg,0.4,23.5 ng/g,,,,,,Fc1ccccc1CC[C@@H]1CN(Cc2c[nH]c3cc(Cl)ccc23)CCC1(F)F,53 nM,,,84%,
320 nM,,,,,,,,,< 50%,< 50%,52%,< 50%,< 50%,Fc1ccc(CC[C@H]2CN(Cc3c[nH]c4cc(F)ccc34)CCC2(F)F)cc1,89 nM,,,75%,
23 nM,0.014,28.6 ng/mL,0.001,111 mL/min/kg,,2490 mL/min/kg,3.5,100 ng/g,,,,,,Fc1ccc2c(CN3CCC(F)(F)[C@H](CCc4ccccc4)C3)c[nH]c2c1,6.3 nM,,,79%,
64 nM,,,,,,,,,,,,,,FC1(F)CCN(Cc2c[nH]c3cc(Cl)ccc23)C[C@H]1CCc1ccccc1,17.7 nM,,,59%,
59 nM,,,,,,,,,,,,,,Fc1ccc2[nH]cc(CN3CCC(F)(F)[C@H](CCc4ccccc4)C3)c2c1,16.4 nM,,,66%,
230 nM,0.004,44.4 ng/mL,0.005,108 mL/min/kg,,1670 mL/min/kg,2.1,93.7 ng/g,,,,,,Cc1ccc(CN2CCC(F)(F)[C@H](CCc3ccccc3)C2)cc1C,63 nM,,77%,,
18.6 nM,0.002,39 ng/mL,0.003,300 mL/min/kg,,1060 mL/min/kg,1.1,43.5 ng/g,53%,< 50%,85%,< 50%,< 50%,COc1ccc2c(CN3CCC(F)(F)[C@H](CCc4cccc(F)c4)C3)c[nH]c2c1,5.2 nM,83%,,,
21 nM,0.003,14.9 ng/mL,0.001,99 mL/min/kg,,582 mL/min/kg,1.3,19.6 ng/g,51%,< 50%,< 50%,< 50%,< 50%,Fc1ccc(CC[C@@H]2CN(Cc3c[nH]c4cc(Cl)ccc34)CCC2(F)F)cc1,5.8 nM,85%,,,
490 nM,,,,,,,,,57%,< 50%,54%,< 50%,< 50%,Fc1ccc2c(CN3CCC(F)(F)[C@@H](CCc4ccccc4F)C3)c[nH]c2c1,140 nM,,,66%,
7 nM,0.009,9.2 ng/mL,0.018,298 mL/min/kg,,957 mL/min/kg,3.3,30.3 ng/g,67%,< 30%,52%,< 30%,< 30%,COc1ccc2c(CN3CCC(F)(F)[C@H](CCc4ccc(F)cc4)C3)c[nH]c2c1,1.9 nM,,,,63%
7.4 nM,0.011,13.2 ng/mL,0.004,,,,1.9,25.5 ng/g,53%,< 50%,85%,< 50%,< 50%,Fc1ccc(CC[C@@H]2CN(Cc3c[nH]c4cc(F)ccc34)CCC2(F)F)cc1,2.1 nM,,,,59%
530 nM,,,,,,,,,,,,,,COc1ccc2c(CN3CCC(F)(F)[C@@H](CCc4cccc(F)c4)C3)c[nH]c2c1,150 nM,,,62%,
88 nM,,,,,,,,,,,,,,COc1ccc2cc(CN3CCC(F)(F)[C@H](CCc4ccccc4)C3)c(OC)nc2c1,24 nM,,,53%,
14.1 nM,0.05,30.4 ng/mL,0.005,,,,1.3,38.9 ng/g,51%,< 50%,65%,< 50%,< 50%,Fc1ccc2c(CN3CCC(F)(F)[C@H](CCc4ccccc4F)C3)c[nH]c2c1,3.9 nM,85%,,,
300 nM,,,,,,,,,< 20%,< 20%,< 20%,< 20%,< 20%,Cc1ccc(CN2CCC(F)(F)C(CCc3ccccc3)C2)cc1C (racemic),82 nM,,85%,,
21 nM,,,,,,,,,< 50%,< 50%,80%,66%,< 50%,COc1ccc2c(CN3CCC(F)(F)C(CCc4ccccc4F)C3)c[nH]c2c1 (racemic),5.9 nM,,95%,,
35 nM,,,,,,,,,< 50%,< 50%,< 50%,< 50%,< 50%,Fc1ccc(CCC2CN(Cc3ncn4ccccc34)CCC2(F)F)cc1 (racemic),9.7 nM,,97%,,
77 nM,,,,,,,,,< 50%,< 50%,< 50%,< 50%,< 50%,Fc1cccc(CCC2CN(Cc3c[nH]c4cc(F)ccc34)CCC2(F)F)c1 (racemic),21 nM,,92%,,
120 nM,,,,,,,,,< 50%,< 50%,< 50%,< 50%,< 50%,FC1(F)CCN(Cc2ncn3ccccc23)CC1CCc1ccccc1 (racemic),34 nM,,90%,,
55 nM,,,,,,,,,< 50%,< 50%,69%,57%,< 50%,Fc1ccccc1CCC1CN(Cc2c[nH]c3cc(Cl)ccc23)CCC1(F)F (racemic),15.3 nM,,96%,,
720 nM,,,,,,,,,< 50%,< 50%,< 50%,52%,< 50%,COc1ccc2[nH]cc(CN3CCC(F)(F)C(CCc4ccccc4)C3)c2c1 (racemic),200 nM,,91%,,
